Assay results reported in the supplement of paper PMC8882468.
± gives the standard deviation of the averaged measurements.

Assays:
Assay in all cases: CTG-3D luminescence at 96 h relative to day-0 seeding control (ratio to day 0); higher = more growth / less cytotoxicity; PDxO 3D drug screen (set 2), 96 h, CTG-3D normalised to day-0 seeding control.
HCI-023 = tested on: HCI-023 (organoid from a triple-negative breast cancer xenograft)
HCI-019 = tested on: HCI-019 (organoid from a triple-negative breast cancer xenograft)
HCI-016 = tested on: HCI-016 (organoid from a triple-negative breast cancer xenograft)
HCI-024 = tested on: HCI-024 (organoid from a breast cancer xenograft)
HCI-017.E2 = tested on: HCI-017.E2 (organoid from an ER-positive breast cancer xenograft)

CCOc1ccn(-c2ccc(F)cc2)c(=O)c1C(=O)Nc1ccc(Oc2ccnc(N)c2Cl)c(F)c1 [ASLAN002]
CTG-3D luminescence at 96 h
Conditions	12.5 pM	0.00025 µM	0.005 µM	0.1 µM	1 µM	10 µM	100 µM	625 fM
HCI-016, days in culture: 305	1.62	3.6	3.65	4.35	2.71	1.97	2.68	3.43
HCI-016, days in culture: 327	0.8	1.78	1.32	1.46	1.87	1.58	1.05	1.72
HCI-016, days in culture: 341	1.97	1.78	2.09	2.6	1.97	2	0.676	2.26
HCI-016, days in culture: 397	1.73	2.37	1.99	2.59	2.39	2.98	0.779	2.52
HCI-017.E2, days in culture: 85	2.5	1.78	1.94	2.7	2.23	1.93	1.32	2.13
HCI-019, days in culture: 173	2.03	1.61	1.52	3.51	1.6	1.16	1.12	1.28
HCI-019, days in culture: 194	1.11	1.59	0.978	1.46	0.851	0.875	1.1	1.75
HCI-019, days in culture: 215	1.3	0.756	1.22	1.28	2.09	0.724	0.591	1.91
HCI-023, days in culture: 223	1.5	2.83	1.7	2.8	1.5	1.49	1.03	1.61
HCI-023, days in culture: 238	1.66	1.62	1.17	1.42	1.76	1.05	0.917	1.58
HCI-023, days in culture: 252	1.99	1.93	1.78	2.01	2.08	1.47	1.15	2.04
HCI-024, days in culture: 202	1.14	1.03	1.19	1.27	0.701	1.41	0.658	1.61
HCI-024, days in culture: 231	0.919	1.2	1.13	1.05	1.25	1.02	0.471	1.06
HCI-024, days in culture: 254	2.48	0.889	0.968	1.46	1.85	1.96	1	2.45

HCI-017.E2
Conditions	CTG-3D luminescence at 96 h
12.5 pM	2.06 ± 0.14
0.00025 µM	2.58 ± 0.42
0.005 µM	2.12 ± 0.22
0.1 µM	2.27 ± 0.29
1 µM	2.14 ± 0.28
10 µM	2.39 ± 0.08
100 µM	1.17 ± 0.015
625 fM	2.34 ± 0.14

C[C@@H](Nc1cc(F)cc(F)c1)c1cc(C(=O)N(C)C)cc2c(=O)cc(N3CCOCC3)oc12 [AZD-8186]
CTG-3D luminescence at 96 h
Conditions	12.5 pM	0.00025 µM	0.005 µM	0.1 µM	1 µM	10 µM	100 µM	625 fM
HCI-016, days in culture: 305	3.52	4.53	2.53	4.16	1.53	1.97	1.51	4.97
HCI-016, days in culture: 327	1.3	1.35	1.53	2.67	0.902	1.31	0.672	1.61
HCI-016, days in culture: 341	2.01	1.59	2.07	1.7	1.81	2.04	0.88	2.55
HCI-016, days in culture: 397	2.34	2.9	1.49	1.76	2.14	1.87	0.71	2.46
HCI-017.E2, days in culture: 85	1.85	1.86	1.62	2.05	1.45	1.14	0.197	2.07
HCI-019, days in culture: 173	3.42	1.4	1.36	2.98	2.28	0.532	0.37	1.05
HCI-019, days in culture: 194	1.94	1.36	1.46	2.1	1.87	1.3	0.367	1.03
HCI-019, days in culture: 215	1.9	1.48	0.854	1.62	0.82	1.39	0.374	1.8
HCI-023, days in culture: 223	1.94	2.6	1.75	1.98	1.44	1.93	1.14	1.74
HCI-023, days in culture: 238	1.54	1.51	1.31	1.41	1.7	1.3	1.05	1.54
HCI-023, days in culture: 252	2.12	1.88	1.63	1.81	1.91	2.09	1.5	1.99
HCI-024, days in culture: 202	1.88	0.916	0.693	1.33	0.84	1.61	0.461	1.39
HCI-024, days in culture: 231	1.33	1.25	1.21	1.01	1.32	0.93	0.399	1.35
HCI-024, days in culture: 254	1.17	1.68	1.81	2.04	0.901	1.55	0.743	1.01

HCI-017.E2
Conditions	CTG-3D luminescence at 96 h
12.5 pM	2.08 ± 0.29
0.00025 µM	2.64 ± 0.68
0.005 µM	2.27 ± 0.18
0.1 µM	2.48 ± 0.5
1 µM	1.89 ± 0.45
10 µM	1.096 ± 0.0042
100 µM	0.252 ± 0.03
625 fM	2.74 ± 0.23

Cc1c(CN2CCN(C(=O)[C@H](C)O)CC2)sc2c(N3CCOCC3)nc(-c3cnc(N)nc3)nc12 [apitolisib]
CTG-3D luminescence at 96 h
Conditions	12.5 pM	0.00025 µM	0.005 µM	0.1 µM	1 µM	10 µM	100 µM	625 fM
HCI-016, days in culture: 305	2.28	2.68	3.05	3.53	0.981	0.764	0.885	4.57
HCI-016, days in culture: 327	1.06	1.19	1.2	1.18	0.573	0.82	0.546	1.62
HCI-016, days in culture: 341	2.23	1.71	1.7	1.65	0.831	0.768	0.618	2.56
HCI-016, days in culture: 397	1.26	1.89	1.41	1.48	0.778	0.916	0.378	1.87
HCI-017.E2, days in culture: 85	2.14	1.73	1.52	1.36	0.359	0.278	0.161	2.09
HCI-019, days in culture: 173	2.46	1.25	0.933	2.29	0.88	0.36	0.336	1.93
HCI-019, days in culture: 194	1.95	1.96	2.18	0.828	0.744	0.462	0.305	1.85
HCI-019, days in culture: 215	0.992	1.33	1.51	0.699	0.362	0.15	0.168	1.4
HCI-023, days in culture: 223	2.19	2.65	1.81	1.85	0.861	0.971	0.469	2.04
HCI-023, days in culture: 238	1.77	1.62	1.45	1.58	1.5	0.763	0.38	1.65
HCI-023, days in culture: 252	1.95	1.92	1.7	2.06	1.62	0.654	0.459	1.97
HCI-024, days in culture: 202	1.67	1.17	1	1.17	0.494	1.03	0.293	1.42
HCI-024, days in culture: 231	1.04	1.28	1.23	1.04	0.577	0.527	0.227	1.38
HCI-024, days in culture: 254	1.36	0.995	0.856	2.4	0.795	0.608	0.25	1.94

HCI-017.E2
Conditions	CTG-3D luminescence at 96 h
12.5 pM	2.28 ± 0.3
0.00025 µM	2.54 ± 0.27
0.005 µM	2.21 ± 0.025
0.1 µM	1.43 ± 0.29
1 µM	0.397 ± 0.021
10 µM	0.399 ± 0.008
100 µM	0.223 ± 0.028
625 fM	2.43 ± 0.34
